Measured values from patent publication US5192766A, “N-acryloylpiperazine derivatives, their preparation and their use as PAF antagonists” (Sankyo Company, Limited, priority 1989, dated 1993).

Tests used:
[1] = tested on: blood platelet (PAF-induced aggregation); test: Inhibitory effect in vitro against PAF-induced blood platelet aggregation; assay type: cell-based; details: Oryctolagus cuniculus, 5 min; rabbit platelet rich plasma; l-C16:0 PAF final 10^-8 ~3×10^-8 M; 5 min observation
Experimental: Inhibitory effect in vitro against PAF-induced blood platelet aggregation
Blood samples were drawn from a rabbit and one part by volume of each sample was immediately mixed with 1/9 part of a 3.8% w/v aqueous solution of sodium citrate. The samples were centrifuged at 150×G at room temperature for 15 minutes to obtain a platelet rich plasma (PRP) fraction from the upper layer. The remains were further centrifuged at 1,000×G for 15 minutes to obtain a platelet poor plasma (PPP) fraction from the upper layer. The PRP and PPP fractions were mixed appropriately, to obtain a sample in which the final count of blood platelets was adjusted to be 6×10^5 per ul. According to the method reported by Born et al. [G. V. R. Born et al.: J. Physiol. 62, 67-68 (1962)], blood platelet aggregation was determined by an increase in light transmission measured using an aggregometer. 3 ul of a solution of the test compound in dimethyl sulfoxide were added to 272 ul of PRP, and, after 1 minute, 25 ul of a physiological saline solution containing l-c16:0 PAF (at a final concentration of 10^-8 ~3×10^-8 M) were added. […] At the end of this value and the value of PAF-induced aggregation which was observed when dimethyl sulfoxide only was used without the addition of any test compound. IC50 values were calculated from the dose-response curve.

PAF-induced hypotension = test: Inhibition of PAF-induced hypotension; assay type: in vivo, Wistar-Imamichi rats; details: Rattus norvegicus, iv, 1 min; anesthetized rats; l-C16:0 PAF 10 ng/kg i.v.; test compound i.v. cumulatively, 1 min before PAF; read-out: Inhibitory effect ID50
Experimental: Inhibition of PAF-induced hypotension
The test animals used were Wistar-Imamichi rats, each weighing from 350 to 450 g, anesthetized with Inactin (90 mg/kd, intraperitoneally).
Blood pressure was continuously measured throughout the experiment through a cannula inserted into the femoral artery. Each drug sample to be tested was intravenously injected through a cannula inserted into the femoral vein.
At first, l-C16:0 PAF was injected intravenously in amounts of 10 ng/kg at each injection at intervals of 5 minutes until the degree of the hypotensive response became constant. Then, each drug sample to be treated was intravenously injected. After one minute, the same dose of PAF was administered again. The drug sample was cumulatively administered. From its inhibition rate against the PAF-induced hypotensive effect, the 50% inhibitive dose (ID50) was determined, and is regarded as an index of PAF-antagonist activity. For administration, the PAF was dissolved in physiological saline solution containing 0.25% w/v of bovine serum albumin (BSA). The compounds under test were dissolved in dimethylformamide for use.
CV-3988 is disclosed in U.S. Pat. No. 4,408,052, and is structurally related to PAF itself.
In this Table, the compounds of the invention are identified by the number of the foregoing Example in which they were prepared.

PAF-receptor = molecular target: T1, PAF-receptor (Oryctolagus cuniculus, UniProt G1TEI7); test: Inhibitor effect on PAF-receptor binding; details: specific binding of ^3H-PAF; rabbit platelet PAF-receptor membrane fraction; read-out: Inhibition of receptor binding (IC50 M)
T1 construct: is regarded as a PAF-receptor membrane fraction; from tissue; host or cells: rabbit blood platelets (membrane fraction from sucrose density layers)
T1 sequence (G1TEI7 1-342): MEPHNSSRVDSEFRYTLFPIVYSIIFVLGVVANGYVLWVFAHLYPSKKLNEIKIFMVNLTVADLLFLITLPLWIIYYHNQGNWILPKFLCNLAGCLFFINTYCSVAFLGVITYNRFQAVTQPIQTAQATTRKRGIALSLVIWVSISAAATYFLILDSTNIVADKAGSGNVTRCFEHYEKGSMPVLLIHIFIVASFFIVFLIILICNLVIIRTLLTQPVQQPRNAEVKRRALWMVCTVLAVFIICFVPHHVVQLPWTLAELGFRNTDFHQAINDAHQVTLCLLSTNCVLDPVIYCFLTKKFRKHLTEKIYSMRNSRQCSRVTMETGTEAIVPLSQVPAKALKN
Text: Inhibitor effect on PAF-receptor binding
Blood samples were drawn from the heart of a rabbit. 1 part by volume of each sample was mixed immediately with 1/9 part of 0.77M solution of disodium ethylenediaminetetraacetate. After a similar procedure to that described in Experiment 2, a precipitated blood platelet sample was obtained. This blood platelet sample was washed, and, after repeated freezing and thawing for cellular breakdown, it was laid on top of double layers consisting of […] and 1.5M sucrose solutions. By centrifugation at 63,500×G, for 2 hours at 4° C., the fraction obtained from the interface between the 0.25M and 1.5M sucrose solutions was collected and is regarded as a PAF-receptor membrane fraction. A receptor binding experiment was conducted according to a method very similar to that reported by Hwang et al. [San-Bao Hwang et al.: J. Biol. Chem. 260, 15639-15645 (1985)]. The specific binding of ^3 H-PAF was measured using a Wattman GF/C filter. A test compound was dissolved in dimethyl sulfoxide and diluted 100 fold with a buffer solution containing 0.5% bovine serum albumin. Nine parts by weight of the solution, for a receptor binding experiment, was mixed with one part of the test compound solution prepared above. The percent inhibition of the specific binding was plotted for a log concentration of the test compound, and the 50% inhibitory concentration (IC50) was calculated from the linear line connecting all the plotted points.

Structure (SMILES)	IC50 [1]	ED50 (PAF-induced hypotension)	IC50 (PAF-receptor)
COc1ccc(/C(=C/C(=O)N2CCN(C(=O)c3cc(OC)c(OC)c(OC)c3)CC2)c2cc(F)cc(F)c2)cc1 [Example 87, 1-[(Z)-3-(4-Methoxyphenyl)-3-(3,5-difluorophenyl)acryloyl]-4-(3,4,5-trimethoxybenzoyl)piperazine]	65 nM	11 µg/kg	76 nM
COc1cc(C(=O)N2CCN(C(=O)C=C(c3cccc(Cl)c3)c3cccc(Cl)c3)CC2)cc(OC)c1OC [Example 41, 1-[3,3-Bis(3-chlorophenyl)acryloyl]-4-(3,4,5-trimethoxybenzoyl)piperazine]	67 nM	7.1 µg/kg	170 nM
COc1ccc(/C(=C/C(=O)N2CCN(C(=O)c3cc(OC)c(OC)c(OC)c3)CC2)c2ccc(Cl)c(Cl)c2)cc1 [Example 31, 1-[(Z)-3-(3,4-Dichlorophenyl)-3-(4-methoxyphenyl)acryloyl]-4-(3,4,5-trimethoxybenzoyl)piperazine]	44 nM	6.7 µg/kg	14 nM
COc1cccc(/C(=C\C(=O)N2CCN(C(=O)c3cc(OC)c(OC)c(OC)c3)CC2)c2cccc(Cl)c2)c1 [Example 44, 1-[(E)-3-(3-Chlorophenyl)-3-(3-methoxyphenyl)acryloyl]-4-(3,4,5-trimethoxybenzoyl)piperazine]	–	7.5 µg/kg	15 nM
COc1cccc(/C(=C/C(=O)N2CCN(C(=O)c3cc(OC)c(OC)c(OC)c3)CC2)c2cccc(Cl)c2)c1 [Example 43, 1-[(Z)-3-(3-Chlorophenyl)-3-(3-methoxyphenyl)acryloyl]-4-(3,4,5-trimethoxybenzoyl)piperazine]	–	4.4 µg/kg	13 nM
CCOc1ccc(/C(=C/C(=O)N2CCN(C(=O)c3cc(OC)c(OC)c(OC)c3)CC2)c2cc(Cl)cc(Cl)c2)cc1 [Example 85, 1-[(Z)-3-(4-Ethoxyphenyl)-3-(3,5-dichlorophenyl)acryloyl]-4-(3,4,5-trimethoxybenzoyl)piperazine]	–	6.1 µg/kg	20 nM
CCCOc1ccc(/C(=C/C(=O)N2CCN(C(=O)c3cc(OC)c(OC)c(OC)c3)CC2)c2ccc(Cl)c(Cl)c2)cc1 [Example 49, 1-[(Z)-3-(3,4-Dichlorophenyl)-3-(4-propoxyphenyl)acryloyl]-4-(3,4,5-trimethoxybenzoyl)piperazine]	66 nM	8 µg/kg	21 nM
COc1cccc(/C(=C/C(=O)N2CCN(C(=O)c3cc(OC)c(OC)c(OC)c3)CC2)c2ccccc2Cl)c1 [Example 72, 1-[(Z)-3-(3-Methoxyphenyl)-3-(2-chlorophenyl)acryloyl]-4-(3,4,5-trimethoxybenzoyl)piperazine]	–	9.7 µg/kg	26 nM
CCc1ccc(/C(=C/C(=O)N2CCN(C(=O)c3cc(OC)c(OC)c(OC)c3)CC2)c2cccc(Cl)c2)cc1 [Example 83, 1-[(Z)-3-(4-Ethylphenyl)-3-(3-chlorophenyl)acryloyl]-4-(3,4,5-trimethoxybenzoyl)piperazine]	–	11 µg/kg	14 nM
COc1cc(C(=O)N2CCN(C(=O)C=C(c3ccccc3)c3ccccc3)CC2)cc(OC)c1OC [Example 1, 1-(3,3-Diphenylacryloyl)-4-(3,4,5-trimethoxybenzoyl)piperazine]	320 nM	57 µg/kg	47 nM
COc1cc(C(=O)N2CCN(C(=O)C=C(c3cccc(C)c3)c3cccc(C)c3)CC2)cc(OC)c1OC [Example 56, 1-[3,3-Bis(3-Methylphenyl)acryloyl]-4-(3,4,5-trimethoxybenzoyl)piperazine]	–	11 µg/kg	35 nM
COc1cc(C(=O)N2CCN(C(=O)/C=C(/c3ccccc3)c3cccs3)CC2)cc(OC)c1OC [Example 5, 1-[(Z)-3-Phenyl-3-(2-thienyl)acryloyl]-4-(3,4,5-trimethoxybenzoyl)piperazin]	260 nM	54 µg/kg	47 nM
CCCOc1cccc(/C(=C/C(=O)N2CCN(C(=O)c3cc(OC)c(OC)c(OC)c3)CC2)c2ccccc2)c1 [Example 76, 1-[(E)-3-(3-Propoxyphenyl)-3-phenylacryloyl]-4-(3,4,5-trimethoxybenzoyl)piperazine]	83 nM	9.2 µg/kg	–
COc1ccc(/C(=C/C(=O)N2CCN(C(=O)c3cc(OC)c(OC)c(OC)c3)CC2)c2cc(C(F)(F)F)cc(C(F)(F)F)c2)cc1 [Example 84, 1-[(Z)-3-(4-Methoxyphenyl)-3-(3,5-di-trifluoromethylphenyl)acryloyl]-4-(3,4,5-trimethoxybenzoyl)piperazine]	–	8.6 µg/kg	40 nM
COc1ccc(/C(=C/C(=O)N2CCN(C(=O)c3cc(OC)c(OC)c(OC)c3)CC2)c2ccccc2Cl)cc1 [Example 42, 1-[(Z)-3-(2-chlorophenyl)-3-(4-methoxyphenyl)acryloyl]-4-(3,4,5-trimethoxybenzoyl)piperazine]	–	5 µg/kg	20 nM
COc1ccc(/C(=C/C(=O)N2CCN(C(=O)c3cc(OC)c(OC)c(OC)c3)CC2)c2cccc(Cl)c2)cc1OC [Example 17, 1-[(Z)-3-(3-Chlorophenyl)-3-(3,4-dimethoxyphenyl)acryloyl]-4-(3,4,5-trimethoxybenzoyl)piperazine]	63 nM	8.3 µg/kg	–
COc1ccc(/C(=C/C(=O)N2CCN(C(=O)c3cc(OC)c(OC)c(OC)c3)CC2)c2cccc(Cl)c2Cl)cc1 [Example 81, 1-[(Z)-3-(4-Methoxyphenyl)-3-(2,3-dichlorophenyl)acryloyl]-4-(3,4,5-trimethoxybenzoyl)piperazine]	31 nM	–	32 nM
COc1ccc(/C(=C/C(=O)N2CCN(C(=O)c3cc(OC)c(OC)c(OC)c3)CC2)c2cccc(C(F)(F)F)c2)cc1 [Example 75, 1-[(Z)-3-(4-Methoxyphenyl)-3-(3-trifluoromethylphenyl)acryloyl]-4-(3,4,5-trimethoxybenzoyl)piperazine]	99 nM	5.1 µg/kg	23 nM
COc1ccc(/C(=C/C(=O)N2CCN(C(=O)c3cc(OC)c(OC)c(OC)c3)CC2)c2ccc(C)cc2)cc1OC [Example 35, 1-[(E)-3-(3,4-Dimethoxyphenyl)-3-(4-methylphenyl)acryloyl]-4-(3,4,5-trimethoxybenzoyl)piperazine]	110 nM	12 µg/kg	–
CCCCCCCCCCCCCCCCCCNC(=O)OCC(COP(=O)([O-])OCC[n+]1ccsc1)OC (racemic) [CV-3988, reference compound]	–	420 µg/kg	1600 nM
COc1ccc(/C(=C/C(=O)N2CCN(C(=O)c3cc(OC)c(OC)c(OC)c3)CC2)c2cc(Cl)cc(Cl)c2)cc1 [Example 77, 1-[(Z)-3-(4-Methoxyphenyl)-3-(3,5-dichlorophenyl)acryloyl]-4-(3,4,5-trimethoxybenzoyl)piperazine]	26 nM	3.7 µg/kg	14 nM
CCc1ccc(/C(=C/C(=O)N2CCN(C(=O)c3cc(OC)c(OC)c(OC)c3)CC2)c2ccc(Cl)c(Cl)c2)cc1 [Example 52, 1-[(Z)-3-(3,4-Dichlorphenyl)-3-(4-ethylphenyl)acryloyl]-4-(3,4,5-trimethoxybenzoyl)piperazine]	30 nM	8.4 µg/kg	–
